pIC50: −log10 of the molar value.
Tested on: 922993-354-T-J3-PDC complex spheroid viability
Assay: Anticancer human tumor 922993-354-T-J3-PDC patient-derived endometrial carcinoma cell line growth inhibition [POLQ]
Conditions: for pIC50: curve of first compound; for viability, T/C: stronger effect = lower value
Description: Multicellular complex tumor spheroid response to Polymerase (POL) inhibitors (novobiocin, ART-558, RP6685) in combination with a variety of drugs and investigational agents in selected tumor cell lines
The POL inhibitors (novobiocin, ART-558, and RP6685) were evaluated both individually and in combination with standard of care and investigational anticancer small molecules within a complex spheroid model of solid tumors. . Complex spheroids include a stromal component modeled by human endothelial cells (HUVEC) and fibroblasts modeled by human mesenchymal stem cells (MSCs). The concentration ranges selected for each drug and investigational agent were based upon clinically achievable concentrations if the clinical Cmax of the agent was known.
Compounds. The drugs and investigational agents: novobiocin (NSC847541), ART-558 (NSC835418), RP-6685 (NSC848927), peposertib (NSC802822), ceralasertib (NSC780249), elimusertib (NSC800525), camonsertib (NSC841442), AZD-1390 (NSC803789), olaparib (NSC753686), talazoparib (NSC767125), rucaparib (NSC756644), sotorasib (NSC818433), MRTX-1133 (NSC836407), SN-38 (NSC673596), topotecan (NSC609699), epotoside (NSC141540), doxorubicin (NSC123127), gemcitabine (NSC613327), 5-fluorouracil (NSC19893), paclitaxel (NSC125973), vemurafenib (NSC761431), MSA-2 (NSC828583), SN-011 (NSC837082), adavosertib (NSC754352), prexasertib (NSC758257), carboplatin (NSC241240) and oxaliplatin (NSC266046), were obtained from the National Cancer Institute (NCI) Developmental Therapeutics Program Chemical Repository (21). The FDA-approved anticancer drug set is available from the Developmental Therapeutics Program at https://dtp.cancer.gov/organization/dscb/obtaining/. […] The stock solutions were prepared in dimethyl sulfoxide (DMSO, Sigma-Aldrich, St. Louis, MO, cat. D2650), except for the platinum compounds which were prepared in saline (Quality Biological, Gaithersburg, MD, cat. 114-055-101), at 800-fold the tested concentration and stored at -70 degrees C prior to their use. All drugs and investigational agents were tested over a range starting from a high concentration at or near the clinical Cmax and decreasing in half-log increments. If the clinical Cmax for an agent had not been determined, the highest concentration tested was 10 microM, except for SN-38, which was tested at a high concentration of 1 microM.
Cell Culture. All cells were maintained in an incubator at 37 degrees C and 5% CO2 with 95% humidity. The PDC lines were cultured according to standard operating procedures established by the NCI PDMR (https://pdmr.cancer.gov). Table 3 of the manuscript, lists the cell lines along with the number of the three cell types plated to form the mct-spheroids and media for tumor cell growth. After thawing, all PDC lines, except 997537-175-T-J1-PDC and 415267-285-R-J2-PDC, were cultured in Matrigel-coated flasks prepared with a working solution of 1X Ham's F-12 nutrient mix, without supplementation (Thermo Fisher Scientific, cat. 11765054), 100 U/mL penicillin-streptomycin (Thermo Fisher Scientific, cat. 15140122), and 2.5% Matrigel (Corning Inc., Corning, NY, cat. 354248) for the first three passages. The two PDC lines 997537-175-T-J1-PDC and 415267-285-R-J2-PDC were cultured on uncoated flasks. The 857933-349-R-J2-PDC line was cultured in 6C/Colon 1B media containing advanced DMEM/F-12 (Thermo Fisher Scientific, cat. 12634028), 10 mM HEPES (Thermo Fisher Scientific, cat. 15630080), 1X GlutaMAX supplement (Thermo Fisher Scientific, cat. 35050061), 0.1 mg/mL primocin (InvivoGen, San Diego, CA, cat. ant-pm-2), 10% defined fetal bovine serum, heat inactivated (HyClone Laboratories Inc., Logan, UT, cat. SH30070.03HI), 50% L-WRN conditioned media (ATCC, cat. CRL-3276), 1.25 mM N-Acetyl-L-cysteine (Sigma-Aldrich, cat. A9165), 10 mM nicotinamide (Sigma-Aldrich, cat. N0636), 1X B-27 supplement (Thermo Fisher Scientific, cat. 17504044), 1X N-2 supplement (Thermo Fisher Scientific, cat. […]

[1] = second compound 0.0316 µM, first compound 0.00316 µM
[2] = second compound 0.0316 µM, first compound 0.01 µM
[3] = second compound 0.0316 µM, first compound 0.0316 µM
[4] = second compound 0.0316 µM, first compound 0.1 µM
[5] = second compound 0.1 µM, first compound 0.00316 µM
[6] = second compound 0.1 µM, first compound 0.01 µM
[7] = second compound 0.1 µM, first compound 0.0316 µM
[8] = second compound 0.1 µM, first compound 0.1 µM
[9] = second compound 0.316 µM, first compound 0.00316 µM
[10] = second compound 0.316 µM, first compound 0.01 µM
[11] = second compound 0.316 µM, first compound 0.0316 µM
[12] = second compound 0.316 µM, first compound 0.1 µM
[13] = second compound 1 µM, first compound 0.00316 µM
[14] = second compound 1 µM, first compound 0.01 µM
[15] = second compound 1 µM, first compound 0.0316 µM
[16] = second compound 1 µM, first compound 0.1 µM
[17] = second compound 3.16 µM, first compound 0.00316 µM
[18] = second compound 3.16 µM, first compound 0.01 µM
[19] = second compound 3.16 µM, first compound 0.0316 µM
[20] = second compound 3.16 µM, first compound 0.1 µM
[21] = second compound 10 µM, first compound 0.00316 µM
[22] = second compound 10 µM, first compound 0.01 µM
[23] = second compound 10 µM, first compound 0.0316 µM
[24] = second compound 10 µM, first compound 0.1 µM
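Further: spheroids exposed to the agents for one week.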
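Wherever viability, T/C is given: 100% = DMSO vehicle control wells.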

`CC[C@@]1(O)C(=O)OCc2c1cc1n(c2=O)Cc2cc3c(CN(C)C)c(O)ccc3nc2-1` + COC1C(OC(N)=O)C(O)C(Oc2ccc3c(O)c(NC(=O)c4ccc(O)c(CC=C(C)C)c4)c(=O)oc3c2C)OC1(C)C gave a pIC50 (second compound 0.0316 µM) of 7.13, a pIC50 (second compound 0.1 µM) of 7.15 and a pIC50 (second compound 0.316 µM) of 7.08. For the same molecule, the pIC50 (second compound 1 µM) was 7.15, the pIC50 (second compound 3.16 µM) was 7.15 and the pIC50 (second compound 10 µM) was 7.11. The viability, T/C (second compound 0.0316 µM, first compound 0.000316 µM) was 102%, the viability, T/C (second compound 0.0316 µM, first compound 0.001 µM) was 83% and the viability, T/C [1] was 98.2%. The viability, T/C [2] was 93.5%, the viability, T/C [3] was 76% and the viability, T/C [4] was 41.3%. It also gave a viability, T/C (second compound 0.1 µM, first compound 0.000316 µM) of 100%, a viability, T/C (second compound 0.1 µM, first compound 0.001 µM) of 101% and a viability, T/C [5] of 102%. The viability, T/C [6] was 98.8%, the viability, T/C [7] was 75.3% and the viability, T/C [8] was 39.1%. For the same molecule, the viability, T/C (second compound 0.316 µM, first compound 0.000316 µM) was 100%, the viability, T/C (second compound 0.316 µM, first compound 0.001 µM) was 96.6% and the viability, T/C [9] was 100%. It also gave a viability, T/C [10] of 96.5%, a viability, T/C [11] of 85.9% and a viability, T/C [12] of 43.6%. It also gave a viability, T/C (second compound 1 µM, first compound 0.000316 µM) of 108%, a viability, T/C (second compound 1 µM, first compound 0.001 µM) of 98.7% and a viability, T/C [13] of 96.9%. It also gave a viability, T/C [14] of 94.6%, a viability, T/C [15] of 73.3% and a viability, T/C [16] of 39.2%. For the same molecule, the viability, T/C (second compound 3.16 µM, first compound 0.000316 µM) was 93.9%, the viability, T/C (second compound 3.16 µM, first compound 0.001 µM) was 99% and the viability, T/C [17] was 89.7%. It also gave a viability, T/C [18] of 90.9%, a viability, T/C [19] of 79% and a viability, T/C [20] of 37.2%. For the same molecule, the viability, T/C (second compound 10 µM, first compound 0.000316 µM) was 92.6%, the viability, T/C (second compound 10 µM, first compound 0.001 µM) was 76.9% and the viability, T/C [21] was 88.3%. The viability, T/C [22] was 84.4%, the viability, T/C [23] was 84.6% and the viability, T/C [24] was 40.7%.

Molecule `CCc1c2c(nc3ccc(O)cc13)-c1cc3c(c(=O)n1C2)COC(=O)[C@]3(O)CC` + COC1C(OC(N)=O)C(O)C(Oc2ccc3c(O)c(NC(=O)c4ccc(O)c(CC=C(C)C)c4)c(=O)oc3c2C)OC1(C)C has a pIC50 (second compound 0.0316 µM) of 8.20, a pIC50 (second compound 0.1 µM) of 8.09 and a pIC50 (second compound 0.316 µM) of 8.09. It also gave a pIC50 (second compound 1 µM) of 8.13, a pIC50 (second compound 3.16 µM) of 8.15 and a pIC50 (second compound 10 µM) of 8.12. For the same molecule, the viability, T/C [1] was 81.4%, the viability, T/C [2] was 28.9% and the viability, T/C [3] was 14.3%. It also gave a viability, T/C [4] of 11.3%, a viability, T/C (second compound 0.0316 µM, first compound 0.316 µM) of 13.4% and a viability, T/C (second compound 0.0316 µM, first compound 1 µM) of 15.7%. The viability, T/C [5] was 85.7%, the viability, T/C [6] was 42.6% and the viability, T/C [7] was 14.8%. The viability, T/C [8] was 12.7%, the viability, T/C (second compound 0.1 µM, first compound 0.316 µM) was 12.1% and the viability, T/C (second compound 0.1 µM, first compound 1 µM) was 17.8%. For the same molecule, the viability, T/C [9] was 85.5%, the viability, T/C [10] was 42.5% and the viability, T/C [11] was 12%. It also gave a viability, T/C [12] of 11.8%, a viability, T/C (second compound 0.316 µM, first compound 0.316 µM) of 11.8% and a viability, T/C (second compound 0.316 µM, first compound 1 µM) of 19.4%. For the same molecule, the viability, T/C [13] was 85.6%, the viability, T/C [14] was 37.9% and the viability, T/C [15] was 11.6%. For the same molecule, the viability, T/C [16] was 9.81%, the viability, T/C (second compound 1 µM, first compound 0.316 µM) was 12.3% and the viability, T/C (second compound 1 µM, first compound 1 µM) was 16.5%. For the same molecule, the viability, T/C [17] was 76.3%, the viability, T/C [18] was 38.5% and the viability, T/C [19] was 15.2%. It also gave a viability, T/C [20] of 11.2%, a viability, T/C (second compound 3.16 µM, first compound 0.316 µM) of 14.2% and a viability, T/C (second compound 3.16 µM, first compound 1 µM) of 19.2%. The viability, T/C [21] was 83.8%, the viability, T/C [22] was 38.8% and the viability, T/C [23] was 10%. The viability, T/C [24] was 10.3%, the viability, T/C (second compound 10 µM, first compound 0.316 µM) was 13.1% and the viability, T/C (second compound 10 µM, first compound 1 µM) was 17%.
